From PMC3131519 (Frontiers in Microbiology, 2011)

Tests used:
[1] = system: P. aeruginosa (ATCC 19429); assay: Galleria mellonella infection by P. aeruginosa, treatment survival; type: in vivo; conditions: 1 × 10^3 CFU P. aeruginosa, single dose 5 μg ciprofloxacin
red blood cells = conditions: 100 μg/ml peptide; ref de Latour et al., 2010; Dean et al., 2011; cited from earlier work

Row | Molecule | effectiveness at prolonging survival vs infected control, in words [1] | hemolysis (red blood cells)
1 | O=C(O)c1cn(C2CC2)c2cc(N3CCNCC3)c(F)cc2c1=O [ciprofloxacin] | effective | 
2 | ATRA |  | no significant hemolysis
